The target in this experiment is T1, human IL-17AA (Homo sapiens, UniProt Q16552).
T1 construct: host or cells: HEK (human embryonic kidney) cells
T1 sequence (Q16552 24-155): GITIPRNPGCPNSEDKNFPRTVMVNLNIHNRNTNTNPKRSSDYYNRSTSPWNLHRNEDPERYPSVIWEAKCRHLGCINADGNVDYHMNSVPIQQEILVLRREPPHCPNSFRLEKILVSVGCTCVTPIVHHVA
Kind of experiment: IL-8 release assay in human epithelial keratinocytes adult (HEKa). To be noted: HEKa cells, 3 ng/mL HEK-human IL-17AA + 10 ng/mL human TNFalpha; read-out: Rel EC50 IL-8 release assay. In kind it is cell-based. In a few lines: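 Adult human epidermal keratinocytes stimulated 68-72 h at 37 °C with 3 ng/mL HEK-derived human IL-17AA plus 10 ng/mL TNF-alpha (final) in the presence of compound; TNF-alpha alone defines 100% inhibition. Secreted IL-8 measured by HTRF as percent of controls; relative IC50/Emax from four-parameter fit (r^2>0.9), cytotoxicity by PrestoBlue.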
For `CC(C)n1nccc1C(=O)N[C@H](C(=O)Nc1ccc(-c2c(C3CC3)ncn2C)cc1)C(C1CC1)C1CC1` [Example 402, N-[(1S)-2,2-dicyclopropyl-1-[[4-(5-cyclopropyl-3-methyl-imidazol-4-yl)phenyl]carbamoyl]ethyl]-2-isopropyl-pyrazole-3-carboxamide], the EC50 lay in the range of 0.1 to 1 µM.

Take `Cc1ncn(C)c1-c1ccc(NC(=O)[C@@H](NC(=O)c2ccnn2C(C)C)C(C2CC2)C2CC2)cc1` [Example 403, N-[(1S)-1-(dicyclopropylmethyl)-2-[4-(3,5-dimethylimidazol-4-yl)anilino]-2-oxo-ethyl]-2-isopropyl-pyrazole-3-carboxamide]: the EC50 fell in the range of 0.1 to 1 µM.

Regarding `Cc1ncccc1-c1ccc(NC(=O)[C@@H](NC(=O)c2ccnn2C(C)C)C(C2CC2)C2CC2)cc1` [Example 404, N-[(1S)-1-(dicyclopropylmethyl)-2-[4-(2-methyl-3-pyridyl)anilino]-2-oxo-ethyl]-2-isopropyl-pyrazole-3-carboxamide], the EC50 is 0.1 to 1 µM.

`Cc1cnccc1-c1ccc(NC(=O)[C@@H](NC(=O)c2ccnn2C(C)C)C(C2CC2)C2CC2)cc1` [Example 405, N-[(1S)-1-(dicyclopropylmethyl)-2-[4-(3-methyl-4-pyridyl)anilino]-2-oxo-ethyl]-2-isopropyl-pyrazole-3-carboxamide]: the EC50 is below 0.1 µM.

`CC(C)n1nccc1C(=O)N[C@H](C(=O)Nc1ccc(-c2c(CO)ncn2C)cc1)C(C1CC1)C1CC1` [Example 406, N-[(1S)-1-(dicyclopropylmethyl)-2-[4-[5-(hydroxymethyl)-3-methyl-imidazol-4-yl]anilino]-2-oxo-ethyl]-2-isopropyl-pyrazole-3-carboxamide]: the EC50 is 0.1 to 1 µM.

With `CC(C)n1nccc1C(=O)N[C@H](C(=O)Nc1ccc(-c2cccnc2CO)cc1)C(C1CC1)C1CC1` [Example 407, N-[(1S)-1-(dicyclopropylmethyl)-2-[4-[2-(hydroxymethyl)-3-pyridyl]anilino]-2-oxo-ethyl]-2-isopropyl-pyrazole-3-carboxamide], the EC50 was 0.1 to 1 µM.

For `Cc1noc(CO)c1-c1ccc(NC(=O)[C@@H](NC(=O)c2ccnn2C(C)C)C(C2CC2)C2CC2)cc1` [Example 409, N-[(1S)-1-(dicyclopropylmethyl)-2-[4-[5-(hydroxymethyl)-3-methyl-isoxazol-4-yl]anilino]-2-oxo-ethyl]-2-isopropyl-pyrazole-3-carboxamide], the EC50 fell in the range of 0.1 to 1 µM.

For `Cc1n[nH]c(C)c1-c1ccc(NC(=O)[C@@H](NC(=O)c2ccnn2C(C)C)C(C2CC2)C2CC2)cc1O` [Example 410, N-[(1S)-1-(Dicyclopropylmethyl)-2-[4-(3,5-dimethyl-1H-pyrazol-4-yl)-3-hydroxy-anilino]-2-oxo-ethyl]-2-isopropyl-pyrazole-3-carboxamide], the EC50 was below 0.1 µM.

Turning to `Cc1n[nH]c(C)c1-c1ccc(NC(=O)[C@@H](NC(=O)c2ccnn2C)C(c2ccccc2)c2ccccc2)cc1O` [Example 411, N-[(1S)-1-benzhydryl-2-[4-(3,5-dimethyl-1H-pyrazol-4-yl)-3-hydroxy-anilino]-2-oxo-ethyl]-2-methyl-pyrazole-3-carboxamide], the EC50 was in the range of 0.1 to 1 µM.

Regarding `Cc1n[nH]c(C)c1-c1ccc(NC(=O)[C@@H](NC(=O)c2ccnn2C)C2CCCCC2)cc1O` [Example 412, N-[(1S)-1-cyclohexyl-2-[4-(3,5-dimethyl-1H-pyrazol-4-yl)-3-hydroxy-anilino]-2-oxo-ethyl]-2-methyl-pyrazole-3-carboxamide], the EC50 was below 0.1 µM.

As for `CCn1nccc1C(=O)N[C@H](C(=O)Nc1ccc(-c2c(C)n[nH]c2C)c(O)c1)C(C1CC1)C1CC1` [Example 413, N-[(1S)-1-(dicyclopropylmethyl)-2-[4-(3,5-dimethyl-1H-pyrazol-4-yl)-3-hydroxy-anilino]-2-oxo-ethyl]-2-ethyl-pyrazole-3-carboxamide], the EC50 was below 0.1 µM.

As to `Cc1n[nH]c(C)c1-c1ccc(NC(=O)[C@@H](NC(=O)c2ccnn2C)C(C2CC2)C2CC2)cc1O` [Example 414, N-[(1S)-1-(dicyclopropylmethyl)-2-[4-(3,5-dimethyl-1H-pyrazol-4-yl)-3-hydroxy-anilino]-2-oxo-ethyl]-2-methyl-pyrazole-3-carboxamide], the EC50 was below 0.1 µM.

For `Cc1n[nH]c(C)c1-c1ccc(NC(=O)[C@@H](NC(=O)C2(F)CC2)C(C2CC2)C2CC2)cc1O` [Example 415, N-[(1S)-1-(dicyclopropylmethyl)-2-[4-(3,5-dimethyl-1H-pyrazol-4-yl)-3-hydroxy-anilino]-2-oxo-ethyl]-1-fluoro-cyclopropanecarboxamide], the EC50 is 0.1 to 1 µM.

Regarding `CCn1nccc1C(=O)N[C@H](C(=O)Nc1ccc(-c2c(C)n[nH]c2C)c(O)c1)[C@H]1CC[C@H](C)CC1` [Example 416, N-[(1S)-2-[4-(3,5-dimethyl-1H-pyrazol-4-yl)-3-hydroxy-anilino]-1-(trans-4-methylcyclohexyl)-2-oxo-ethyl]-2-ethyl-pyrazole-3-carboxamide], the EC50 is below 0.1 µM.

On to `Cc1n[nH]c(C)c1-c1ccc(NC(=O)[C@@H](NC(=O)c2ccnn2C(C)C)[C@H]2CC[C@H](C)CC2)cc1O` [Example 417, N-[(1S)-2-[4-(3,5-dimethyl-1H-pyrazol-4-yl)-3-hydroxy-anilino]-1-(trans-4-methylcyclohexyl)-2-oxo-ethyl]-2-isopropyl-pyrazole-3-carboxamide], for which the EC50 is below 0.1 µM.

Turning to `CCc1n[nH]c(CC)c1-c1ccc(NC(=O)[C@@H](NC(=O)c2ccnn2C(C)C)C(C2CC2)C2CC2)cc1O` [Example 418, N-[(1S)-1-(dicyclopropylmethyl)-2-[4-(3,5-diethyl-1H-pyrazol-4-yl)-3-hydroxy-anilino]-2-oxo-ethyl]-2-isopropyl-pyrazole-3-carboxamide], the 50% effective concentration (EC50) is below 0.1 µM.

Regarding `Cn1cncc1-c1ccc(NC(=O)[C@@H](NC(=O)c2ccnn2C)C2CCCCC2)cc1O` [Example 419, N-[(1S)-1-Cyclohexyl-2-[3-hydroxy-4-(3-methylimidazol-4-yl)anilino]-2-oxo-ethyl]-2-methyl-pyrazole-3-carboxamide], the concentration giving a half-maximal response (EC50) was 0.1 to 1 µM.

In the case of `Cn1cncc1-c1ccc(NC(=O)[C@@H](NC(=O)c2ccnn2C)C(c2ccccc2)c2ccccc2)cc1O` [Example 420, N-[(1S)-1-benzhydryl-2-[3-hydroxy-4-(3-methylimidazol-4-yl)anilino]-2-oxo-ethyl]-2-methyl-pyrazole-3-carboxamide], the EC50 lay in the range of 0.1 to 1 µM.

For the compound `Cc1n[nH]cc1-c1ccc(NC(=O)[C@@H](NC(=O)c2ccnn2C)C(c2ccccc2)c2ccccc2)cc1O` [Example 421, N-[(1S)-1-Benzhydryl-2-[3-hydroxy-4-(3-methyl-1H-pyrazol-4-yl)anilino]-2-oxo-ethyl]-2-methyl-pyrazole-3-carboxamide], the EC50 was 0.1 to 1 µM.

Turning to `Cn1cncc1-c1ccc(NC(=O)[C@@H](NC(=O)OC2CC2)C2CCCCC2)cc1O` [Example 422, Cyclopropyl N-[(1S)-1-cyclohexyl-2-[3-hydroxy-4-(3-methylimidazol-4-yl)anilino]-2-oxo-ethyl]carbamate], the EC50 is above 1 µM.

With `Cc1ncn(C)c1-c1ccc(NC(=O)[C@@H](NC(=O)OC2CC2)C(c2ccccc2)c2ccccc2)cc1` [Example 423, Cyclopropyl N-[(1S)-1-benzhydryl-2-[4-(3,5-dimethylimidazol-4-yl)anilino]-2-oxo-ethyl]carbamate], the EC50 lay within 0.1 to 1 µM.

As for `Cc1n[nH]c(C)c1-c1ccc(NC(=O)[C@@H](NC(=O)OC2CC2)C2CCCCC2)cc1O` [Example 424, cyclopropyl N-[(1S)-1-cyclohexyl-2-[4-(3,5-dimethyl-1H-pyrazol-4-yl)-3-hydroxy-anilino]-2-oxo-ethyl]carbamate], the EC50 fell in the range of 0.1 to 1 µM.

For the compound `Cc1n[nH]c(C)c1-c1ccc(NC(=O)[C@@H](NC(=O)OC2CC2)C2CCCCCC2)cc1O` [Example 425, cyclopropyl N-[(1S)-1-cycloheptyl-2-[4-(3,5-dimethyl-1H-pyrazol-4-yl)-3-hydroxy-anilino]-2-oxo-ethyl]carbamate], the EC50 was 0.1 to 1 µM.

As for `Cc1n[nH]c(C)c1-c1ccc(NC(=O)[C@@H](NC(=O)OC2CC2)C(c2ccccc2)c2ccccc2)cc1` [Example 426, cyclopropyl N-[(1S)-1-benzhydryl-2-[4-(3,5-dimethyl-1H-pyrazol-4-yl)anilino]-2-oxo-ethyl]carbamate], the EC50 was 0.1 to 1 µM.

For `Cc1n[nH]c(C)c1-c1ccc(NC(=O)[C@@H](NC(=O)OC2CC2)C2CCCCCC2)cc1` [Example 427, cyclopropyl N-[(1S)-1-cycloheptyl-2-[4-(3,5-dimethyl-1H-pyrazol-4-yl)anilino]-2-oxo-ethyl]carbamate], the EC50 is below 0.1 µM.

As for `Cc1n[nH]c(C)c1-c1ccc(NC(=O)[C@@H](NC(=O)OC2CCC2)C(C2CC2)C2CC2)cc1` [Example 428, Cyclobutyl N-[(1S)-1-(dicyclopropylmethyl)-2-[4-(3,5-dimethyl-1H-pyrazol-4-yl)anilino]-2-oxo-ethyl]carbamate], the EC50 is below 0.1 µM.

As to `Cc1n[nH]c(C)c1-c1ccc(NC(=O)[C@@H](NC(=O)OCc2ccccc2)C2CCCCC2)cc1` [Example 429, benzyl N-[(1S)-1-cyclohexyl-2-[4-(3,5-dimethyl-1H-pyrazol-4-yl)anilino]-2-oxo-ethyl]carbamate], the EC50 is 0.1 to 1 µM.

As for `Cc1n[nH]c(C)c1-c1ccc(NC(=O)[C@@H](NC(=O)OCc2cccnc2)C2CCCCC2)cc1` [Example 430, 3-pyridylmethyl N-[(1S)-1-cyclohexyl-2-[4-(3,5-dimethyl-1H-pyrazol-4-yl)anilino]-2-oxo-ethyl]carbamate], the EC50 lay within 0.1 to 1 µM.

The record behind these values is patent US11377425B1, “Small molecule modulators of IL-17” (LEO Pharma A/S, priority 2018, dated 2022).
